Patent US9573913B2, “Cathepsin cysteine protease inhibitors” (Merck Sharp & Dohme Corp., priority 2013, dated 2017)

Experiments:
human cathepsin K = human cathepsin K (UniProt P43236); assay: Cathepsin K Assay (hrbCat K); assay type: biochemical; settings: Z-Leu-Arg-AMC substrate, pH 5.5, 15 min preincubation; read-out: hrbCat K (IP (nM))
Outline: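 Human cathepsin K (0.4 nM) was preincubated 15 min at room temperature with compound in 50 mM MES pH 5.5, 2.5 mM EDTA, 2.5 mM DTT and 10% DMSO. Inhibition was fitted to a dose-response model.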

human cathepsin F = target: T1, human cathepsin F (Homo sapiens, UniProt Q9UBX1); assay: Cathepsin F assay (hCat F); assay type: biochemical; settings: Z-Phe-Arg-AMC substrate, pH 5.5, 15 min preincubation; read-out: hCat F (IP (nM))
T1 sequence (Q9UBX1 271-484): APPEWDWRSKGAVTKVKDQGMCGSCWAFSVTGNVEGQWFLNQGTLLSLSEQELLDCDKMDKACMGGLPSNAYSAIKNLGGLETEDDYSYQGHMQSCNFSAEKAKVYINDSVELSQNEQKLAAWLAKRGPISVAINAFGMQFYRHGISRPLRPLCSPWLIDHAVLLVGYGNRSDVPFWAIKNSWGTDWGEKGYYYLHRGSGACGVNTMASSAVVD
Outline: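 AMC release from Z-Phe-Arg-AMC, added at 8 μM, was monitored fluorometrically (360/460 nm) for 20 min after 10 nM enzyme and compound had been preincubated 15 min at room temperature. Buffer: MES 50 mM pH 5.5, EDTA and DTT 2.5 mM each, 10% DMSO. Compound DMSO dilutions spanned 500–0.025 μM (3-fold). Dose-response fitting gave % inhibition.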

IC50 (human cathepsin K) [nM] | IC50 (human cathepsin F) [nM] | Compound
1.9 | 879 | Cn1cccc(-c2nc([C@@H]3CCCC[C@H]3C(=O)NC3(C#N)CC3)c(-c3ccc(N4CCS(=O)(=O)CC4)cc3)s2)c1=O [Example 50, (1R,2R)-N-(1-cyanocyclopropyl)-2-(5-(4-(1,1-dioxidothiomorpho-lino)phenyl)-2-(1-methyl-2-oxo-1,2-dihydropyridin-3-yl)thiazol-4-yl)cyclohexane-carboxamide]
1.8 | 1110 | COc1ccc(-c2nc([C@@H]3CCCC[C@H]3C(=O)NC3(C#N)CC3)c(-c3ccc(N4CCS(=O)(=O)CC4)cc3)s2)cc1 [Example 51, (1R,2R)-N-(1-cyanocyclopropyl)-2-(5-(4-(1,1-dioxidothiomorpho-lino)phenyl)-2-(4-methoxyphenyl)thi-azol-4-yl)cyclohexane-carboxamide]
3.8 | 2770 | Cn1cc(-c2nc([C@@H]3CCCC[C@H]3C(=O)NC3(C#N)CC3)c(-c3ccc(N4CCS(=O)(=O)CC4)cc3)s2)ccc1=O [Example 53, (1R,2R)-N-(1-cyanocyclopropyl)-2-(5-(4-(1,1-dioxidothiomorpho-lino)phenyl)-2-(1-methyl-6-oxo-1,6-dihydropyridin-3-yl)thiazol-4-yl)cyclohexane-carboxamide]
2.1 | 1000 | COc1ccccc1-c1nc([C@@H]2CCCC[C@H]2C(=O)NC2(C#N)CC2)c(-c2ccc(N3CCS(=O)(=O)CC3)cc2)s1 [Example 54, (1R,2R)-N-(1-cyanocyclopropyl)-2-(5-(4-(1,1-dioxidothiomorpho-lino)phenyl)-2-(2-methoxyphenyl)thi-azol-4-yl)cyclohexane-carboxamide]
2.5 | 1120 | N#CC1(NC(=O)[C@@H]2CCCC[C@H]2c2nc(-c3ccccc3F)sc2-c2ccc(N3CCS(=O)(=O)CC3)cc2)CC1 [Example 55, (1R,2R)-N-(1-cyanocyclopropyl)-2-(5-(4-(1,1-dioxidothiomorpho-lino)phenyl)-2-(2-fluorophenyl)thiazol-4-yl)cyclohexane-carboxamide]
1.8 | 821 | COc1cccc(-c2nc([C@@H]3CCCC[C@H]3C(=O)NC3(C#N)CC3)c(-c3ccc(N4CCS(=O)(=O)CC4)cc3)s2)c1 [Example 56, (1R,2R)-N-(1-cyanocyclopropyl)-2-(5-(4-(1,1-dioxidothiomorpho-lino)phenyl)-2-(3-methoxyphenyl)thi-azol-4-yl)cyclohexane-carboxamide]
1.5 | 650 | N#CC1(NC(=O)[C@@H]2CCCC[C@H]2c2nc(-c3cc(F)cc(F)c3)sc2-c2ccc(N3CCS(=O)(=O)CC3)cc2)CC1 [Example 57, (1R,2R)-N-(1-cyanocyclopropyl)-2-(2-(3,5-difluorophenyl)-5-(4-(1,1-dioxidothiomorpho-lino)phenyl)thiazol-4-yl)cyclohexane-carboxamide]
1.7 | 815 | N#CC1(NC(=O)[C@@H]2CCCC[C@H]2c2nc(-c3ccc(F)c(F)c3)sc2-c2ccc(N3CCS(=O)(=O)CC3)cc2)CC1 [Example 58, (1R,2R)-N-(1-cyanocyclopropyl)-2-(2-(3,4-difluorophenyl)-5-(4-(1,1-dioxidothiomorpho-lino)phenyl)thiazol-4-yl)cyclohexane-carboxamide]
45.1 | ≥ 10000 | COc1cnc(-c2nc([C@@H]3CCCC[C@H]3C(=O)NC3(C#N)CC3)c(-c3ccc(N4CCS(=O)(=O)CC4)cc3)s2)c(OC)c1 [Example 59, (1R,2R)-N-(1-cyanocyclopropyl)-2-(2-(3,5-dimethoxypyridin-2-yl)-5-(4-(1,1-dioxidothiomorpho-lino)phenyl)thiazol-4-yl)cyclohexane-carboxamide]
5.1 | 7910 | COc1cnc(-c2nc([C@@H]3CCCC[C@H]3C(=O)NC3(C#N)CC3)c(-c3ccc(N4CCS(=O)(=O)CC4)cc3)s2)c(F)c1 [Example 60, (1R,2R)-N-(1-cyanocyclopropyl)-2-(5-(4-(1,1-dioxidothiomorpho-lino)phenyl)-2-(3-fluoro-5-methoxypyridin-2-yl)thiazol-4-yl)cyclohexane-carboxamide]
5.9 | 7650 | N#Cc1cc(F)ccc1-c1nc([C@@H]2CCCC[C@H]2C(=O)NC2(C#N)CC2)c(-c2ccc(N3CCS(=O)(=O)CC3)cc2)s1 [Example 61, (1R,2R)-2-(2-(2-cyano-4-fluorophenyl)-5-(4-(1,1-dioxidothiomorpho-lino)phenyl)thiazol-4-yl)-N-(1-cyanocyclopropyl) cyclohexanecarbox-amide]
2.1 | 1000 | N#CC1(NC(=O)[C@@H]2CCCC[C@H]2c2nc(-c3cccc(F)c3F)sc2-c2ccc(N3CCS(=O)(=O)CC3)cc2)CC1 [Example 62, (1R,2R)-N-(1-cyanocyclopropyl)-2-(2-(2,3-difluorophenyl)-5-(4-(1,1-dioxidothiomorpho-lino)phenyl)thiazol-4-yl)cyclohexane-carboxamide]
1.4 | 1330 | N#CC1(NC(=O)[C@@H]2CCCC[C@H]2c2nc(-c3cccc(F)c3)sc2-c2ccc(N3CCS(=O)(=O)CC3)cc2)CC1 [Example 64, (1R,2R)-N-(1-cyanocyclopropyl)-2-(5-(4-(1,1-dioxidothiomorpho-lino)phenyl)-2-(3-fluorophenyl)thiazol-4-yl)cyclohexane-carboxamide]
7 | 1000 | N#CC1(NC(=O)[C@@H]2CCCC[C@H]2c2nc(-c3ncc(F)cc3F)sc2-c2ccc(N3CCS(=O)(=O)CC3)cc2)CC1 [Example 65, (1R,2R)-N-(1-cyanocyclopropyl)-2-(2-(3,5-difluoropyridin-2-yl)-5-(4-(1,1-dioxidothiomorpho-lino)phenyl)thiazol-4-yl)cyclohexane-carboxamide]
2 | 1410 | N#Cc1cccc(-c2nc([C@@H]3CCCC[C@H]3C(=O)NC3(C#N)CC3)c(-c3ccc(N4CCS(=O)(=O)CC4)cc3)s2)c1 [Example 66, (1R,2R)-N-(1-cyanocyclopropyl)-2-(2-(3-cyanophenyl)-5-(4-(1,1-dioxidothiomorpho-lino)phenyl)thiazol-4-yl)cyclohexane-carboxamide]
5.8 | ≥ 10000 | Cc1ccc(-c2nc([C@@H]3CCCC[C@H]3C(=O)NC3(C#N)CC3)c(-c3ccc(N4CCS(=O)(=O)CC4)cc3)s2)c(C#N)c1 [Example 67, (1R,2R)-2-(2-(2-cyano-4-methylphenyl)-5-(4-(1,1-dioxidothiomorpho-lino)phenyl)thiazol-4-yl)-N-(1-cyanocyclopropyl) cyclohexanecarbox-amide]
1.7 | 2310 | N#CC1(NC(=O)[C@@H]2C[C@@H](F)CC[C@H]2c2nc(-c3cncc(Cl)c3)sc2-c2ccc(N3CCS(=O)(=O)CC3)cc2)CC1 [Example 68, (1R,2R,5S)-2-(2-(5-chloropyridin-3-yl)-5-(4-(1,1-dioxidothiomorpho-lino)phenyl)thiazol-4-yl)-N-(1-cyanocyclopropyl)-5-fluorocyclohexane-carboxamide]
1.2 | 2600 | N#CC1(NC(=O)[C@@H]2C[C@@H](F)CC[C@H]2c2nc(-c3ccc(F)cn3)sc2-c2ccc(N3CCS(=O)(=O)CC3)cc2)CC1 [Example 69, (1R,2R,5S)-N-(1-cyanocyclopropyl)-2-(5-(4-(1,1-dioxidothiomorpho-lino)phenyl)-2-(5-fluoropyridin-2-yl)thiazol-4-yl)-5-fluorocyclohexane-carboxamide]
27.1 | ≥ 10000 | N#CC1(NC(=O)[C@@H]2CCCC[C@H]2c2nc(-c3ncccn3)sc2-c2ccc(N3CCS(=O)(=O)CC3)cc2)CC1 [Example 70, (1R,2R)-N-(1-cyanocyclopropyl)-2-(5-(4-(1,1-dioxidothiomorpho-lino)phenyl)-2-(pyrimidin-2-yl)thiazol-4-yl)cyclohexane-carboxamide]
2.3 | 2320 | N#CC1(NC(=O)[C@@H]2CCCC[C@H]2c2nc(-c3cnc(N)nc3)sc2-c2ccc(N3CCS(=O)(=O)CC3)cc2)CC1 [Example 71, (1R,2R)-2-(2-(2-aminopyrimidin-5-yl)-5-(4-(1,1-dioxidothiomorpho-lino)phenyl)thiazol-4-yl)-N-(1-cyanocyclopropyl) cyclohexanecarbox-amide]
2.3 | 2150 | N#CC1(NC(=O)[C@@H]2CCCC[C@H]2c2nc(-c3cccnc3)sc2-c2ccc(N3CCS(=O)(=O)C4(CC4)C3)cc2)CC1 [Example 72, (1R,2R)-N-(1-cyanocyclopropyl)-2-(5-(4-(4,4-dioxido-4-thia-7-azaspiro[2.5]octan-7-yl)phenyl)-2-(pyridin-3-yl)thiazol-4-yl)cyclohexane-carboxamide]
2.2 | 1200 | CS(=O)(=O)C1CN(c2ccc(-c3sc(-c4cccnc4)nc3[C@@H]3CCCC[C@H]3C(=O)NC3(C#N)CC3)cc2)C1 [Example 73, (1R,2R)-N-(1-cyanocyclopropyl)-2-(5-(4-(3-(methylsulfonyl)azetidin-1-yl)phenyl)-2-(pyridin-3-yl)thiazol-4-yl)cyclohexane-carboxamide]
